In patent US20250163057A1, “DCN-1 MODULATING COMPOUNDS AND METHODS OF USE THEREOF” (Cellarity, Inc., priority 2023, published 2025):

Assays:
[1] = test system: fetal hemoglobin protein; assay: HbF HPLC Cell Culture Assay; type: cell-based; details: for Hemoglobin HPLC Ymax obs (%): relative to a control compound; for EC50: 336 h, HbF induction, Day 14 of culture
Protocol: A Cell Culture Assay was performed to evaluate the ability of compounds to induce fetal hemoglobin in a cell culture. The amount fetal hemoglobin protein induced was measured by HPLC.
Cell culture began on Day −4 (thaw day). Thaw buffer was prepared by sterile filtering 6 mL of Human Serum Albumin and 144 mL of PBS to make sterile 1% I/PBS. Cells were removed from liquid nitrogen storage and mostly thawed in a 37° C. water bath. Once the ice in the cryovials was melted, cells were transferred quickly into a 50 mL conical tube. Cryovial was rinsed once with thaw buffer and buffer was transferred over to the conical tube as well. Next, doubling volumes of thaw buffer was added to the conical and gently swirled for ˜30 seconds to one minute (for example: 2 mL was added and swirled, then 4 mL, then 8 mL, and so on) until the volume in the conical is 32 mL. Cells and buffer were centrifuged at 300G for 8 minutes, and the supernatant was aspirated. Another 32 mL of thaw buffer was added slowly, swirling the tube. The tube was again centrifuged at 300G for 8 minutes and the supernatant was aspirated. Cells were counted by resuspending in 1 mL of expansion media and counting with AOPI to determine the concentration of cells/mL.
On day 2, Passage & Treatment Day, each cell culture well was counted. Next fresh CD34 Expansion Media was made which contained StemSpan SFEM, CC100 and TPO all from StemCell technologies. Appropriate volume of cells was collected, centrifuged at 300 g and resuspended in fresh media. Cells were plated in treatment format at a density of 200,000 cells/ml, 25,000 cells/well. Finally, they were treated with test compounds as well as positive and negative controls.
On Days 0, 3 & 5 the same process was carried out. First, each cell culture well was counted. Next Phase 1 Erythroid Differentiation Media was freshly made, which contained StemSpan SFEM, 2.5 U/ml EPO, 0.5 mg/ml Holo-TF, 1× Glutamax, 5 μl/ml chemically defined lipid mixture, 10 ng/ml insulin, 50 ng/ml SCF, 10 ng/ml IL-3. Appropriate volume of cells was collected, centrifuged at 300 g and resuspended in fresh media. Cells should now be in fresh wells at a density of 100,000 cells/ml. 60,000 cells, 60,000 cells and 100,000 cells for days 0, 3, 5 respectively. Finally, fresh compound was added to each well at each timepoint (Days 0, 3 & 5).
On Day 7 media and cell culture density changes. Each cell culture well was counted. Next, Phase 2 Erythroid Differentiation Media was freshly made, which contains StemSpan SFEM, 2.5 U/ml EPO, 0.5 mg/ml Holo-TF, 1× Glutamax, 5 μl/ml chemically defined lipid mixture, 10 ng/ml insulin, 50 ng/ml SCF. Appropriate volume of cells was collected, centrifuged at 300 g and resuspended in fresh media. Cells were plated in fresh wells at a density of 500,000 cells/ml, 300,000 cells/well. Finally, fresh compound was added to each well at Day 7 timepoint.
On Day 10 media formulation is once again changed. Each cell culture well was counted. Fresh Phase 3 Erythroid Differentiation Media was made which contains StemSpan SFEM, 2.5 U/ml EPO, 0.5 mg/ml Holo-TF, 1× Glutamax, 5 μl/ml chemically defined lipid mixture, 10 ng/ml insulin. Appropriate volume of cells was collected, centrifuged at 300 g and resuspended in fresh media. Cells were plated in fresh wells at a density of 500,000 cells/ml, 500,000 cells/well. Finally, fresh compound was added to each well at Day 10 timepoint.
On Day 12 the cell density is once again changed. Each cell culture well was counted. Fresh Phase 3 Erythroid Differentiation Media was made. Appropriate volume of cells was collected, centrifuged at 300 g and resuspended in fresh media. Cells were plated in fresh wells at a density of 1,000,000 cells/ml, 1,000,000 cells/well. Finally fresh compound was added to each well.
Day 14 (18th day of experiment) refers to the terminal day of culture. Each cell culture well was counted. Next between 150K and 650K cells were placed in a uniquely labeled 1.5 ml standard tube. […]

[2] = target: DCN1 (DCUND1) protein PONY domain (Homo sapiens (Human), UniProt Q96GG9); assay: Off-rate measurement of reversible covalent molecules (jump dilution TR-FRET with Cy5 probe); type: binding; details: for Category: binding mode category from off-rate assay; for residence time: inverse of rate constant K; for residence time / half-life: jump dilution TR-FRET; for koff: jump dilution, Cy5 covalent probe 150 nM, TR-FRET; for half-life: ln(2)/K
Sequence of DCN1 (DCUND1) protein PONY domain (Q96GG9 60-248): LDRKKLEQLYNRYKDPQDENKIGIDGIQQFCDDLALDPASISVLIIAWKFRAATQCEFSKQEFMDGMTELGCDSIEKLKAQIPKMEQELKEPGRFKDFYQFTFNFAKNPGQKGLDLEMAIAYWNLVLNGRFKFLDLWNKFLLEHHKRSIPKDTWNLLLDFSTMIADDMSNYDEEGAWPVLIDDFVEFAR

Compound | Hemoglobin HPLC Ymax obs (%) [1] | Category [2] | residence time [2] | koff [2] | half-life [2] | EC50 [1]
CCN1C(=O)[C@@H](NC(=O)c2cccc(C(F)(F)F)c2)[C@@H](c2ccc(F)cc2)c2c(C(=O)N3CCC[C@H]3C#N)nn(-c3ccccc3)c21 (mixture of isomers) [Compound I-34] | ++ (Hemoglobin HPLC Ymax greater than 65.0 and less than or equal to 100.0) | – | – | – | – | –
CCN1C(=O)[C@@H](NC(=O)c2cccc(C(F)(F)F)c2)[C@@H](C2CC2)c2c(C(=O)N3CCS(=O)(=O)C[C@H]3C#N)nn(C3CCOCC3)c21 (mixture of isomers) [Compound I-379] | – | reversible covalent | 78.9 min | 0.000211 s⁻¹ | 54.69 min | –
CCN1C(=O)[C@@H](NC(=O)c2cccc(C(F)(F)F)c2)[C@@H](c2ccc(F)cc2)c2c(C(=O)N3CS(=O)(=O)C[C@H]3C#N)nn(C3CCOCC3)c21 (mixture of isomers) [Compound I-661, N-((4S,5S)-3-(4-cyano-1,1-dioxidothiazolidine-3-carbonyl)-7-ethyl-4-(4-fluorophenyl)-6-oxo-1-(tetrahydro-2H-pyran-4-yl)-4,5,6,7-tetrahydro-1H-pyrazolo[3,4-b]pyridin-5-yl)-3-(trifluoromethyl)benzamide] | ++ (Hemoglobin HPLC Ymax greater than 65.0 and less than or equal to 100.0) | – | – | – | – | > 200 nM
CCN1C(=O)[C@@H](NC(=O)c2cccc(C(F)(F)F)c2)[C@@H](c2ccc(F)cc2)c2c(CNC(=O)/C=C/C(=O)OC)nn(-c3ccccc3)c21 (racemic) [Compound I-3] | ++ (Hemoglobin HPLC Ymax greater than 65.0 and less than or equal to 100.0) | – | – | – | – | 50 to 200 nM
C=C(CN1CCC1)C(=O)NCc1nn(-c2ccccc2)c2c1[C@H](c1ccc(F)cc1)[C@H](NC(=O)c1cccc(C(F)(F)F)c1)C(=O)N2CC (racemic) [Compound I-49, rac-N-((4R,5R)-3-((2-(azetidin-1-ylmethyl)acrylamido)methyl)-7-ethyl-4-(4-fluorophenyl)-6-oxo-1-phenyl-4,5,6,7-tetrahydro-1H-pyrazolo[3,4-b]pyridin-5-yl)-3-(trifluoromethyl)benzamide] | ++ (Hemoglobin HPLC Ymax greater than 65.0 and less than or equal to 100.0) | – | – | – | – | ≤ 50 nM
CCN1C(=O)[C@@H](NC(=O)c2cccc(C(F)(F)F)c2)[C@@H](c2ccc(F)cc2)c2c(NC(=O)C3=CCC3)nn(-c3ccccc3)c21 (racemic) [Compound I-152] | ++ (Hemoglobin HPLC Ymax greater than 65.0 and less than or equal to 100.0) | – | – | – | – | > 200 nM
CCN1C(=O)[C@@H](NC(=O)c2cccc(C(F)(F)F)c2)[C@@H](c2ccc(F)cc2)c2c(CN(C)C#N)nn(-c3ccccc3)c21 [Compound I-92] | + (Hemoglobin HPLC Ymax greater than or equal to 0.0 and less than or equal to 65.0) | – | – | – | – | > 200 nM
CCN1C(=O)[C@@H](NC(=O)c2cccc(C(F)(F)F)c2)[C@@H](c2ccc(F)cc2)c2c(C(=O)NC3(C#N)CC3)nn(-c3ccccc3)c21 [Compound I-112] | +++ (Hemoglobin HPLC Ymax greater than 100.0) | – | – | – | – | > 200 nM
C=C(CN1CCC1)C(=O)NCc1nn(-c2ccccc2)c2c1[C@@H](c1ccc(F)cc1)[C@H](NC(=O)c1cccc(C(F)(F)F)c1)C(=O)N2CC [Compound I-139] | ++ (Hemoglobin HPLC Ymax greater than 65.0 and less than or equal to 100.0) | – | – | – | – | ≤ 50 nM
CCN1C(=O)[C@@H](NC(=O)c2cccc(C(F)(F)F)c2)[C@@H](c2ccc(F)cc2)c2c(CNC#N)nn(-c3ccccc3)c21 [Compound I-140, N-[(4S, 5S)-3-[(cyanoamino)methyl]-7-ethyl-4-(4-fluorophenyl)-6-oxo-1-phenyl-4,5-dihydropyrazolo[3,4-b]pyridine-5-yl]-3-(trifluoromethyl) benzamide] | + (Hemoglobin HPLC Ymax greater than or equal to 0.0 and less than or equal to 65.0) | – | – | – | – | > 200 nM
CCN1C(=O)[C@@H](NC(=O)c2cccc(C(F)(F)F)c2)[C@@H](c2ccc(F)cc2)c2c(C(=O)N3[C@H](C#N)C[C@H]4C[C@H]43)nn(-c3ccccc3)c21 [Compound I-277] | ++ (Hemoglobin HPLC Ymax greater than 65.0 and less than or equal to 100.0) | – | – | – | – | ≤ 50 nM
CCN1C(=O)[C@@H](NC(=O)c2cccc(C(F)(F)F)c2)[C@@H](c2ccc(F)cc2)c2c(C(=O)N3CCC[C@H]3C#N)nn(-c3ccccc3)c21 [Compound I-278] | + (Hemoglobin HPLC Ymax greater than or equal to 0.0 and less than or equal to 65.0) | – | – | – | – | > 200 nM
CCN1C(=O)[C@@H](NC(=O)c2cccc(C(F)(F)F)c2)[C@@H](c2ccc(F)cc2)c2c(C(=O)N3CCNC[C@H]3C#N)nn(C3CCOCC3)c21 [Compound I-363, N-((4S,5S)-3-((S)-2-cyanopiperazine-1-carbonyl)-7-ethyl-4-(4-fluorophenyl)-6-oxo-1-(tetrahydro-2H-pyran-4-yl)-4,5,6,7-tetrahydro-1H-pyrazolo[3,4-b]pyridin-5-yl)-3-(trifluoromethyl)benzamide] | – | slow reversible | – | – | – | –
CCN1C(=O)[C@@H](NC(=O)c2cccc(C(F)(F)F)c2)[C@@H](c2ccc(F)cc2)c2c(C(=O)N(C)[C@@H](C#N)CCN(C)C)nn(C3CCOCC3)c21 [Compound I-369] | – | fast reversible | 39.4 min | 0.000425 s⁻¹ | 27.3 min | –
CCN1C(=O)[C@@H](NC(=O)c2cccc(C(F)(F)F)c2)[C@@H](c2ccc(F)cc2)c2c(C(=O)N(C)[C@H](C#N)CCN(C)C)nn(C3CCOCC3)c21 [Compound I-370] | – | fast reversible | 78.6 min | 0.000212 s⁻¹ | 54.5 min | –
CCN1C(=O)[C@@H](NC(=O)c2cccc(C(F)(F)F)c2)[C@@H](C2CC2)c2c(C(=O)N3CCNC[C@H]3C#N)nn(-c3ccccc3)c21 [Compound I-383] | – | irreversible covalent | – | – | – | –
CCN1C(=O)[C@@H](NC(=O)c2cccc(C(F)(F)F)c2)[C@@H](C)c2c(C(=O)N3[C@H](C#N)C[C@H]4C[C@H]43)nn(C3CCOCC3)c21 [Compound I-387] | – | reversible covalent | 144 min | 0.000116 s⁻¹ | 100 min | –
CCc1cccc(C(=O)N[C@@H]2C(=O)N(CC)c3c(c(C(=O)N4[C@H](C#N)C[C@H]5C[C@H]54)nn3C3CCOCC3)[C@@H]2C2CC2)c1 [Compound I-552, N-((4S,5S)-3-((1R,3S,5R)-3-cyano-2-azabicyclo[3.1.0]hexane-2-carbonyl)-4-cyclopropyl-7-ethyl-6-oxo-1-(tetrahydro-2H-pyran-4-yl)-4,5,6,7-tetrahydro-1H-pyrazolo[3,4-b]pyridin-5-yl)-3-ethylbenzamide] | – | reversible covalent | 224 min | 7.5e-05 s⁻¹ | 155.6 min | –
CCN1C(=O)[C@@H](NC(=O)c2cccc(C(F)(F)F)c2)[C@@H](C2CC2)c2c(C(=O)N3CCNC[C@H]3C#N)nn(C3CCOCC3)c21 [Compound I-582] | – | irreversible covalent | – | – | – | –
CCN1C(=O)[C@@H](NC(=O)c2cccc(C(F)(F)F)c2)[C@@H](C2CC2)c2c(C(=O)N3CS(=O)(=O)C[C@H]3C#N)nn(C3CCOCC3)c21 [Compound I-617] | – | fast reversible | 66.3 min | 0.000251 s⁻¹ | 45.95 min | –
